From patent publication US7005271B1, “Method for the determination of the prethrombotic state” (priority 1994, dated 2006)

Key:
[1] = Storage stability of biotinylated annexin V; format: physicochemical
Protocol: After 90 min at 25° C., the reaction is stopped by adding IM Lysine/HCl to a final concentration of 10 mM. The biotinylated annexin V is finally dialysed overnight at 4° C. against Storage buffer.

U937 cells = assay: DNA analysis by flow cytometry of U937 cells after apoptosis induction; format: cell-based; conditions: 40 μM 7β hydroxycholesterol
Protocol: U937 cells are grown in a humidified 5% CO2 atmosphere at 37° C., using RPMI 1640 medium with Glutamax-I, supplemented with 10% heat-inactivated fetal calf serum, 1 mM sodium pyruvate, non-essential amino acids and gentamicin icin at 5 μg/mL Cells are usually plated at an initial conentration of 1.10^5/ml. Apoptosis induction is achieved by 40 μM 7β hydroxycholesterol- or 5 μg/ml actinomycin D-treatment of U937 cells at 37° C. during 8 to 24 hours. Cells have to be seeded at 3 to 4.10^5 cells per ml 6 h before treatment. Cell supernatant is obtained by centrifugation of treated cells at 500 g during 7 min and CaCl2 is added to a final concentration of 10 mM before addition of 200 μl/well of supernatant. For each experiment, a control without 7β hydroxycholesterol or actinomycin D has to be performed and culture medium containing 10% fetal calf serum should also be tested. It has to be emphasized that the content of microparticles of 10% fetal calf serum was low, probably due to removal of most of the cell fragments at sterilizing ultrafiltration. The amount of captured microparticles is determined using the prothrombinase assay.
The Prothrombinase Activity is Correlated with DNA Analysis by Flow Cytometry (Table 2)

Compound	storage stability ([1]; stored below 0° C.)	storage stability (anti-phospholipid potential) ([1]; stored for months at −80° C.)	% of hypodiploid DNA (U937 cells; 0 h treatment) [%]	% of hypodiploid DNA (U937 cells; 8 h treatment) [%]	% of hypodiploid DNA (U937 cells; 10 h treatment) [%]	% of hypodiploid DNA (U937 cells; 12 h treatment) [%]	% of hypodiploid DNA (U937 cells; 20 h treatment) [%]	% of hypodiploid DNA (U937 cells; 22 h treatment) [%]
annexin-V^Bi: Human placenta annexin V biotinylated with biotin-X-OSu, insolubilized onto streptavidin-coated plates as capture receptor	stable for weeks	without detectable loss of anti-phospholipid potential	–	–	–	–	–	–
CC(C)CCC[C@@H](C)[C@H]1CC[C@H]2[C@@H]3[C@@H](O)C=C4C[C@@H](O)CC[C@]4(C)[C@H]3CC[C@]12C [7β-hydroxycholesterol]	–	–	2.75	9.43	12.58	18.31	35.03	41.54
